Laboratory results taken from patent US11723890B2, “Methods of treatment using an mTORC1 modulator” (Navitor Pharmaceuticals, Inc., priority 2019, dated 2023).

System: subjects with TRD
Assay: Example 1 Part B: preliminary efficacy on depression rating scales in subjects with TRD
Assay type: in vivo, human
Settings: for Effect size, HAM-D6 for ≤55 years old / Effect size, HAM-D6 for ≥36 MADRS at baseline / Effect size, CGI-S for ≤55 years old / Effect size, MADRS Total for ≤55 years old / Effect size, CGI-S for ≥36 MADRS at baseline / Effect size, MADRS Total for ≥36 MADRS at baseline / Effect size, IDS-SR Psychomotor Domain / Effect size, MADRS-06 (core) / Effect size, MADRS-08 (core-plus): post-hoc; for Effect size, HAM-D6 for ≤55 years old / Effect size, CGI-S for ≤55 years old / Effect size, MADRS Total for ≤55 years old: N = 14; for Effect size, HAM-D6 for ≥36 MADRS at baseline / Effect size, CGI-S for ≥36 MADRS at baseline / Effect size, MADRS Total for ≥36 MADRS at baseline: N = 16
Method: Primary Efficacy Endpoint: The primary efficacy endpoint was the difference between the compound A group and the placebo group in change from baseline in the Montgomery Asberg Depression Rating Scale (MADRS) total score at Day 2 (24 hours post dose).
Secondary Efficacy Endpoints: Secondary preliminary efficacy endpoints were the difference between the compound A group and the placebo group in: • change from baseline in the MADRS total score at each time point • change from baseline in the Hamilton Depression Rating Scale-6 Item (HAM-D6) total score at each time point • change from baseline in the IDS-SR30 total score and domain scores at each time point • change from baseline in the Clinical Global Impression-Severity (CGI-S) score at each time point
Preliminary Efficacy Evaluations: Other psychiatric evaluations were performed to assess preliminary efficacy in Part B only. These evaluations included the Montgomery-Asberg Depression Rating Scale (MADRS), the Hamilton Depression Rating Scale-6 Item (HAM-D6), the Clinical Global Impression-Severity (CGI-S), and the Inventory of Depressive Symptomatology (30-item, self-rated version) (IDS-SRN). Montgomery-Asberg Depression Rating Scale (MADRS).
The MADRS is a clinician-administered scale used to assess the range of symptoms that are most frequently observed in patients with major depression. The scale includes 10 items, each scored on a scale of 0 to 6. The MADRS was administered centrally by a third-party independent rater blinded to protocol, visit, and treatment.
Hamilton Depression Rating Scale-6 Item (HAM-D6): The HAM-D6 is a clinician-administered scale used to assess key domains of depressive symptomatology. The HAM-D6 was derived from the original 17-item version of the scale (HAM-D17). Five of the six items are scored on a scale of 0 to 4, and one item is scored on a scale of 0 to 2.
Clinical Global Impression-Severity (CGI-S): The CGI-S is a 7-point clinician-administered scale used to assess the severity of the patient's illness at the time of assessment relative to the clinician's past experience with patients who have the same diagnosis.
Inventory of Depressive Symptomatology (30-Item, Self-Rated Version) (IDS-SR30): The IDS-SR30 is a self-rated scale used to assess the severity of depressive symptomatology. The scale includes 30 items, each scored on a scale of 0 to 3.
The MADRS total score was centrally administered. The HAM-D6 was site-administered. The CGI-S was site physician administered. The IDS-SR was patient self-administered. MADRS-6 and MADRS-8 scores were then extrapolated post hoc from the MADRS total scores.
MADRS-10 items include apparent sadness, reported sadness, inner tension, reduced sleep, reduced appetite, concentration difficulties, lassitude, inability to feel, pessimistic thoughts, and suicidal thoughts. MADRS-6 items include apparent sadness, reported sadness, inner tension, lassitude, inability to feel, and pessimistic thoughts. MADRS-8 items include apparent sadness, reported sadness, inner tension, concentration difficulties, lassitude, inability to feel, pessimistic thoughts, and suicidal thoughts. HAM-D6 items include depressed mood, low self-esteem/guilt, work and interests, psychomotor retardation, psychic anxiety, and somatic symptoms.
When determining clinically significant antidepressant effect, it is recommended to use standardized effect size statistics. The correct use of depression rating scales in clinical trials of antidepressants is to indicate the effect size of the specific items of depression and to accept an effect size of 0.40 or higher as being the clinically significant effect. An effect size of ≥0.2 indicates early improvement. An effect size of ≥0.4 indicates a clinical response.

[1] = single 2400 mg vs placebo, 12 h
[2] = single 2400 mg vs placebo, 24 h
[3] = single 2400 mg vs placebo, 24 h, N = 31
[4] = single 2400 mg vs placebo, 24 h, prespecified, N = 31
[5] = single 2400 mg vs placebo, 36 h
[6] = single 2400 mg vs placebo, 48 h
[7] = single 2400 mg vs placebo, 48 h, N = 31
[8] = single 2400 mg vs placebo, 48 h, prespecified, N = 31
[9] = single 2400 mg vs placebo, 72 h
[10] = single 2400 mg vs placebo, 72 h, N = 31
[11] = single 2400 mg vs placebo, 72 h, prespecified, N = 31
[12] = single 2400 mg, 24 hours post dose

## CC(C)(C[C@H](N)C(=O)O)C(F)F [Compound A, (S)-2-amino-5,5-difluoro-4,4-dimethylpentanoic acid]
Single 2400 mg
  duration of numerical benefits on HAM-D6: 24 to 72 h
  onset of efficacy on HAM-D6: as early as two hours post-dose
Single 2400 mg vs placebo
  MADRS items with greater impact than placebo: inner tension, concentration, pessimistic thoughts, and inability to feel
Single 2400 mg vs placebo, 2 h
  Effect size, HAM-D6 for ≤55 years old: 0.8
  Effect size, HAM-D6 for ≥36 MADRS at baseline: 1.0
Single 2400 mg vs placebo, 2 h, prespecified, N = 31
  Effect size, HAM-D6: 0.6
Single 2400 mg vs placebo, 4 h
  Effect size, HAM-D6 for ≤55 years old: 1.0
  Effect size, HAM-D6 for ≥36 MADRS at baseline: 1.1
Single 2400 mg vs placebo, 4 h, prespecified, N = 31
  Effect size, HAM-D6: 0.8
Single 2400 mg vs placebo, 8 h
  Effect size, HAM-D6 for ≤55 years old: 1.1
  Effect size, HAM-D6 for ≥36 MADRS at baseline: 0.8
Single 2400 mg vs placebo, 8 h, prespecified, N = 31
  Effect size, HAM-D6: 0.7
[1]
  Effect size, HAM-D6 for ≤55 years old: 1.3
  Effect size, HAM-D6 for ≥36 MADRS at baseline: 0.9
Single 2400 mg vs placebo, 12 h, prespecified, N = 31
  Effect size, HAM-D6: 0.8
[2]
  Effect size, CGI-S for ≤55 years old: 0.2
  Effect size, HAM-D6 for ≤55 years old: 0.9
  Effect size, MADRS Total for ≤55 years old: 0.6
  Effect size, CGI-S for ≥36 MADRS at baseline: 0.2
  Effect size, HAM-D6 for ≥36 MADRS at baseline: 0.8
  Effect size, MADRS Total for ≥36 MADRS at baseline: 0.4
[3]
  Effect size, IDS-SR Psychomotor Domain: 0.8
  Effect size, MADRS-06 (core): 0.3
  Effect size, MADRS-08 (core-plus): 0.3
[4]
  Effect size, CGI-S Change from baseline: -0.1
  Effect size, HAM-D6: 0.5
  Effect size, IDS-SR 30 Total Score: 0.3
  Effect size, MADRS Total Score (prelim. primary @24 h): 0.1
[5]
  Effect size, HAM-D6 for ≤55 years old: 1.3
  Effect size, HAM-D6 for ≥36 MADRS at baseline: 0.9
Single 2400 mg vs placebo, 36 h, prespecified, N = 31
  Effect size, HAM-D6: 0.5
[6]
  Effect size, CGI-S for ≤55 years old: 0.4
  Effect size, HAM-D6 for ≤55 years old: 1.2
  Effect size, MADRS Total for ≤55 years old: 0.6
  Effect size, CGI-S for ≥36 MADRS at baseline: 0.7
  Effect size, HAM-D6 for ≥36 MADRS at baseline: 0.9
  Effect size, MADRS Total for ≥36 MADRS at baseline: 0.3
[7]
  Effect size, IDS-SR Psychomotor Domain: 0.3
  Effect size, MADRS-06 (core): 0.3
  Effect size, MADRS-08 (core-plus): 0.3
[8]
  Effect size, CGI-S Change from baseline: 0.1
  Effect size, HAM-D6: 0.5
  Effect size, IDS-SR 30 Total Score: 0.3
  Effect size, MADRS Total Score: 0.2
[9]
  Effect size, CGI-S for ≤55 years old: 0.2
  Effect size, HAM-D6 for ≤55 years old: 1.1
  Effect size, MADRS Total for ≤55 years old: 0.3
  Effect size, CGI-S for ≥36 MADRS at baseline: 1.0
  Effect size, HAM-D6 for ≥36 MADRS at baseline: 0.8
  Effect size, MADRS Total for ≥36 MADRS at baseline: 0.3
[10]
  Effect size, IDS-SR Psychomotor Domain: 0.6
  Effect size, MADRS-06 (core): 0.1
  Effect size, MADRS-08 (core-plus): 0.1
[11]
  Effect size, CGI-S Change from baseline: 0.2
  Effect size, HAM-D6: 0.4
  Effect size, IDS-SR 30 Total Score: 0.3
  Effect size, MADRS Total Score: -0.1
[12]
  MADRS concentration scores: marked improvement
  MADRS item Apparent Sadness, % CFB: −12.3%
  MADRS item Apparent Sadness, CFB: −0.56
  MADRS item Apparent Sadness, score Day 1: 4.00
  MADRS item Concentration, % CFB: −23.1%
  MADRS item Concentration, CFB: −0.94
  MADRS item Concentration, score Day 1: 3.13
  MADRS item Inability to Feel, % CFB: −12.9%
  MADRS item Inability to Feel, CFB: −0.56
  MADRS item Inability to Feel, score Day 1: 3.81
  MADRS item Inner Tension, % CFB: −40.5%
  MADRS item Inner Tension, CFB: −1.06
  MADRS item Inner Tension, score Day 1: 1.56
  MADRS item Lassitude, % CFB: −1.8%
  MADRS item Lassitude, CFB: −0.06
  MADRS item Lassitude, score Day 1: 3.44
  MADRS item Pessimistic Thoughts, % CFB: −23.3%
  MADRS item Pessimistic Thoughts, CFB: −0.63
  MADRS item Pessimistic Thoughts, score Day 1: 2.06
  MADRS item Reduced Appetite, % CFB: −14.3%
  MADRS item Reduced Appetite, CFB: −0.44
  MADRS item Reduced Appetite, score Day 1: 2.63
  MADRS item Reduced Sleep, % CFB: −7.4%
  MADRS item Reduced Sleep, CFB: −0.31
  MADRS item Reduced Sleep, score Day 1: 3.94
  MADRS item Reported Sadness, % CFB: −19.2%
  MADRS item Reported Sadness, CFB: −0.94
  MADRS item Reported Sadness, score Day 1: 3.94
  MADRS item Suicidal Thoughts, % CFB: −9.1%
  MADRS item Suicidal Thoughts, CFB: −0.06
  MADRS item Suicidal Thoughts, score Day 1: 0.63
  MADRS-10 TOTAL SCORE, CFB: −5.5
Single 2400 mg, at 2 h
  Change in HAM-D6 Total Score: −2.0
  Change in HAM-D6 Total Score, Difference Compound A vs Placebo: −1.3
Single 2400 mg, at 4 h
  Change in HAM-D6 Total Score: −2.6
  Change in HAM-D6 Total Score, Difference Compound A vs Placebo: −1.8
Single 2400 mg, at 8 h
  Change in HAM-D6 Total Score: −2.9
  Change in HAM-D6 Total Score, Difference Compound A vs Placebo: −1.7
Single 2400 mg, at 12 h
  Change in HAM-D6 Total Score: −3.9
  Change in HAM-D6 Total Score, Difference Compound A vs Placebo: −2.7
Single 2400 mg, at 24 h
  Change in HAM-D6 Total Score: −3.5
  Change in HAM-D6 Total Score, Difference Compound A vs Placebo: −1.5
Single 2400 mg, at 36 h
  Change in HAM-D6 Total Score: −4.3
  Change in HAM-D6 Total Score, Difference Compound A vs Placebo: −1.8
Single 2400 mg, at 48 h
  Change in HAM-D6 Total Score: −3.7
  Change in HAM-D6 Total Score, Difference Compound A vs Placebo: −1.3
Single 2400 mg, at 72 h
  Change in HAM-D6 Total Score: −4.1
  Change in HAM-D6 Total Score, Difference Compound A vs Placebo: −1.3
Single dose 2400 mg, FIG. 2
  HAM-D6 scores: rapid and sustained efficacy
